The record followed here is patent publication US20090280511A1, “Methods for selecting candidate peptides presented on the surface of cancer cells following their binding to MHC class I molecules” (priority 2008, published 2009).

Residues, ends and D or L forms follow the SMILES beside them. *: point of attachment. Cbz = O=C(OCc1ccccc1)*

What all share (type): cell-based, mouse
The test system of assay [1] is DC2.4 cells. In words: Effect of inhibitors on H-2Kb/pOV8 expression after acid wash. The procedure: The DC2.4 cells were washed with acid 12 hours after transfection as in FIG. 3. The inhibitors were added at 0 hours (time 0). After 6 hours, the cells were recovered and examined.
The effect of various inhibitors on H-2Kb/pOV8 expression was examined. […] DC2.4 cells were transfected with DNA and after two hours, excess DNA was removed and the cells were further incubated for 12 hours. The cells were washed with acid and the indicated inhibitor was added at the same time. After six hours, H-2Kb/pOV8 expression was measured using 25D1.16 antibody.
Other inhibitors were examined as in the experiment described in [8] above.
The same system in [8] above was used to examine the effect of non-natural amino acids such as canavanine or azetidine. It is known that proteins incorporating non-natural amino acids are easily degraded since they fail to fold properly.

For assay [2], the system named is DC2.4 cells. In words: H-2Kb/pOV8 presentation after introducing proteins from outside into the cytosol with Chariot. From the text: The presentation of H-2Kb/pOV8 was examined when pOV8-YFP and YFP-pOV8 were introduced directly from the outside into the cytosol of DC2.4 cells.
Chariot was used as a reagent for forcibly making the cell membrane permeable to proteins in solution. It was again examined whether the presentation of pOV8 to H-2Kb was improved by fusion of pOV8 to the N-terminus of YFP as compared to fusion to the C-terminus. The cells were heated in the presence of any of YFP, pOV8-YFP, and YFP-pOV8, and the cell membrane permeabilizing agent Chariot. After washing the cells, a whole cell extract was prepared. After SDS-PAGE, Western blotting was performed using anti-YFP antibody (inset of FIG. 5). In addition, the expression of H-2Kb/pOV8 in these cells was measured using the 25D1.16 antibody.

In assay [3] the test system is DC2.4 cells. In words: H-2Kb/pOV8 expression with or without IFNγ treatment, 25D1.16 antibody. As to conditions: DC2.4 cells expressing pOV8-YFP or YFP-pOV8. From the text: First, DC2.4 cells expressing pOV8-YFP and YFP-pOV8 were respectively treated with IFNγ and analyzed for H-2Kb/pOV8 expression using the 25D1.16 antibody.
Cellular IFNγ treatment causes an increase in class I antigen expression, and the enormous immunological significance of this phenomenon has been elucidated. The principle of N-terminal epitope dominance should play a significant role in direct antigen presentation in the living body, since it brings about an expression difference similar to that which results from the presence or absence of IFNγ treatment.
In the table, the term “whole” means the sum of H-2Kb/pOV8 expression for all cells expressing YFP. The term “at 10^2 fluorescent units” means H-2Kb/pOV8 expression for cells expressing 10^2 fluorescent units of YFP.

a-amanitin: the “effect of inhibitor on H-2Kb/pOV8 expression (presentation)” value in assay [1] is given as “Recovery in H-2Kb/pOV8 expression was not observed”.
As to “OVA: full-length OVA antigen protein containing the pOV8 epitope”, the “presentation of H-2Kb/pOV8” value in assay [2] (protein administered to cells in the presence of Chariot) is recorded as “slight presentation of H-2Kb/pOV8 was observed”.
On to `C1CNC1` [azetidine], for which, in assay [1], the “effect of inhibitor on H-2Kb/pOV8 expression (presentation)” value is on record as “no effect on antigen presentation”.
In the case of “IFNγ: cytokine used to treat cells; known to increase MHC class I antigen expression”, the “effect of IFNγ treatment on H-2Kb/pOV8 expression” value in assay [3] is on record as “increased”.
In the case of `CC(C)C[C@@H](C=O)NC(=O)[C@H](CC(C)C)NC(=O)[C@H](CC(C)C)NC(=O)OCc1ccccc1` [MG132] (Cbz-Leu-Leu-Leu-aldehyde), in assay [2] (OVA plus Chariot), the “effect on antigen presentation of OVA administered with Chariot” value was “reduced antigen presentation”.
On to `CCN(CC)CCCC(C)Nc1ccnc2cc(Cl)ccc12` (centres unmarked) [chloroquine], for which the “effect of inhibitor on H-2Kb/pOV8 expression (presentation)” value in assay [1] is recorded as “not inhibited”.
For `COc1ccc(C[C@H]2NC[C@H](O)[C@H]2OC(C)=O)cc1` [anisomycin], in assay [1], the “effect of inhibitor on H-2Kb/pOV8 expression (presentation)” value is “inhibited”.
On the same count and under the same terms, then `N=C(N)NOCC[C@H](N)C(=O)O` [canavanine], with “no variation”.
